# Source: patent US20240140895A1, “NOVEL AROMATIC MOLECULES” (XENIOPRO GmbH, priority 2018, published 2024)
# Experiments:
# Type in all cases: cell-based
# [1] = test system: Notch signaling (human Notch1 receptor, hNotch1ΔE); test: Notch reporter assay (dual luciferase, HeLa cells transfected with hNotch1ΔE); settings: 10 μM
# Source text: The activation level of Notch signaling can be quantified in vitro reliably by measuring the expression levels of Notch specific target genes. This can be accomplished by the quantification of corresponding mRNA or protein of a particular Notch target gene. Alternatively, cells can be genetically modified to carry a luciferase gene as an artificial Notch target gene, which is expressed in dependence of Notch activity. In this setting, Notch signaling levels can be quantified by measuring the luciferase-derived bioluminescence values.
# An according Notch-reporter assay, i.e. a luciferase-based luminescence readout, was used here to quantify the ability of the claimed compounds to augment Notch signaling in a cellular system. […] After 24 hours of transfection, the transfected cells were carefully detached from the dish using 0.5 mM EDTA in PBS and seeded into 96-well plates suitable for luminescence readouts (CORNING, #3610) at 10,000 cells per well. […] Directly after the lysis, first the Firefly and then the Renilla luciferase values were measured consecutively from the same well with a luminescence reader immediately after applying 15 μL per well each of the corresponding enzyme substrates needed to create the luminescence signals (Promega, Dual-Luciferase® Reporter Assay System, #E1910). […]
# [2] = test system: NB-4 cells (human acute promyelocytic leukemia cells); test: Proliferation assay (alamarBlue) with NB-4 cells
# Source text: (§1) The antiproliferative activities of compounds falling under formula (Ia), (Tb) and (Ic), respectively, were investigated on cells or cell lines originating from a disorder of the haematopoietic system, including the myeloid cell compartment and the lymphoid cell compartment (T-cells and B-cells), the neuroendocrine system, the cervix, the breast, the ovaries, the lung, the gastrointestinal tract, and the mucosal epithelium, as well as from the skin epithelium and from the muscle. To this end, HL-60 cells, NB-4 cells, HH cells, RPMI-8402 cells, TANOUE cells, TT cells, HeLa cells, MDA-MB-231 cells, FU-OV-1 cells, LOU-NH91 cells, 23132/87 cells, CAL-27 cells, BHY cells, SCC-25 cells, A-431 cells, human primary epidermal keratinocytes (HPEK), and C2C12 cells were seeded into 96-well plates suitable for fluorescence assays (CORNING #3598) at following initial cell numbers: 1000 cells per well for HL-60; 1000 cells per well for NB-4; 5000 cells per well for HH; 5000 cells per well for RPMI-8402; 1500 cells per well for TANOUE; 9000 cells per well for TT; 2000 cells per well for HeLa; 3000 cells per well for MDA-MB-231; 3000 cells per well for FU-OV-1; 4000 cells per well for LOU-NH91; 2000 cells per well for 23132/87; 2000 cells per well for CAL-27; 1500 cells per well for BHY; 1500 cells per well for SCC-25; 700 cells per well for A-431; 1000 cells per well for HPEK; 500 cells per well for C2-C12. The cells were treated with compounds at indicated final concentrations (diluted from the 1000× stock-solutions in DMSO to a final DMSO concentration of 0.1% v/v in H2O (Water For Injection, WFI, Fisherscientific #10378939)) or with the empty carrier DMSO at 0.1% v/v as control for 5 days. At day 5 after starting the treatments the cells were subjected to the alamarBlue® Proliferation Assay (Bio-Rad Serotec GmbH, BUF012B) according to the protocol of the manufacturer. The readout was taken with a multi-well plate-reader in the fluorescence mode with applying a filter for excitation at 560 nm (band width 10 nm) and for emission at 590 nm (band width 10 nm). Control treatments for growth inhibition with commercial compounds such as Methotrexate (MTREX) and Resveratrol (RES) were included on every plate. Some of the test compounds of the present invention were obtained and applied as their salts. According cases are indicated in the column “Specification” in Table 30 to Table 62 and by their sum formula in Table 63.
# (§2) The assays were performed in duplicate or more replicates of independent single experiments each containing a six-fold replicate for every condition. For every individual plate, the measured fluorescence intensity values of the conditions with compound treatment were normalized against the corresponding equally weighted arithmetic mean of the fluorescence intensity values of the six DMSO treated control wells in order to obtain the relative values to a baseline level of 1.0.
# (§3) Two independent outlier analyses were performed according to the methods by Peirce and Chauvenet (Ross, Journal of Engineering Technology 2003, 1-12). Outliers confirmed by at least one of the methods were excluded from the calculations but not more than one value out of six per compound within a single experiment. The weighted arithmetic mean (here abbreviated as AVEw) for each compound was calculated from the normalized values over all independent replicates of the single experiments comprising the six replicates each. The corresponding standard deviation for the weighted arithmetic mean was calculated according to the method described by Bronstein et al. (Bronstein, Semendjajew, Musiol, Muhlig, Taschenbuch der Mathematik, 5th edition 2001 (German), publisher: Verlag Harri Deutsch, Frankfurt am Main and Thun) and was combined with the Gauβ′ error propagation associated with the performed calculation for the normalization. The resulting standard deviation is herein referred to as “combined standard deviation”. […]
# [3] = test system: FU-OV-1 cells (human ovarian carcinoma cells); test: Proliferation assay (alamarBlue) with FU-OV-1 cells; settings: 20 μM
# Source text: (§4) The antiproliferative activities of compounds falling under formula (Ia), (Tb) and (Ic), respectively, were investigated on cells or cell lines originating from a disorder of the haematopoietic system, including the myeloid cell compartment and the lymphoid cell compartment (T-cells and B-cells), the neuroendocrine system, the cervix, the breast, the ovaries, the lung, the gastrointestinal tract, and the mucosal epithelium, as well as from the skin epithelium and from the muscle. To this end, HL-60 cells, NB-4 cells, HH cells, RPMI-8402 cells, TANOUE cells, TT cells, HeLa cells, MDA-MB-231 cells, FU-OV-1 cells, LOU-NH91 cells, 23132/87 cells, CAL-27 cells, BHY cells, SCC-25 cells, A-431 cells, human primary epidermal keratinocytes (HPEK), and C2C12 cells were seeded into 96-well plates suitable for fluorescence assays (CORNING #3598) at following initial cell numbers: 1000 cells per well for HL-60; 1000 cells per well for NB-4; 5000 cells per well for HH; 5000 cells per well for RPMI-8402; 1500 cells per well for TANOUE; 9000 cells per well for TT; 2000 cells per well for HeLa; 3000 cells per well for MDA-MB-231; 3000 cells per well for FU-OV-1; 4000 cells per well for LOU-NH91; 2000 cells per well for 23132/87; 2000 cells per well for CAL-27; 1500 cells per well for BHY; 1500 cells per well for SCC-25; 700 cells per well for A-431; 1000 cells per well for HPEK; 500 cells per well for C2-C12. […] The readout was taken with a multi-well plate-reader in the fluorescence mode with applying a filter for excitation at 560 nm (band width 10 nm) and for emission at 590 nm (band width 10 nm). […]
# as §2, with “1.0. […]” for “1.0.”
# [4] = test system: HeLa cells (human cervical adenocarcinoma cells); test: Proliferation assay (alamarBlue) with HeLa cells; settings: compound at 20 μM
# Source text: as §4
# as §2, with “1.0. […]” for “1.0.”
# [5] = test system: SCC-25 cells (human tongue squamous cell carcinoma cells); test: Proliferation assay (alamarBlue) with SCC-25 cells; settings: Homo sapiens, read-out: Activity Range: weighted arithmetic mean (AVEw) of normalized fluorescence intensity relative to DMSO basis level 1.0
# Source text: as §1, §2, §3
# [6] = test system: LOU-NH91 cells (human lung squamous cell carcinoma cells); test: Proliferation assay (alamarBlue) with LOU-NH91 cells; settings: 20 μM
# Source text: as §4
# as §2, with “1.0. […]” for “1.0.”
# [7] = test system: CAL-27 cells (human tongue squamous cell carcinoma cells); test: Proliferation assay (alamarBlue) with CAL-27 cells; settings: read-out: Activity Range: weighted arithmetic mean (AVEw) of normalized fluorescence intensity relative to DMSO basis level 1.0
# Source text: as §1, §2, §3
# [8] = test system: BHY cells (human oral squamous cell carcinoma cells); test: Proliferation assay (alamarBlue) with BHY cells; settings: read-out: Activity Range: weighted arithmetic mean (AVEw) of normalized fluorescence intensity relative to DMSO basis level 1.0
# Source text: as §1, §2, §3
# [9] = test system: RPMI-8402 cells (human T cell acute lymphoblastic leukemia cells); test: Proliferation assay (alamarBlue) with RPMI-8402 cells; settings: Homo sapiens, read-out: Activity Range: weighted arithmetic mean (AVEw) of normalized fluorescence intensity relative to DMSO basis level 1.0
# Source text: as §1, §2, §3
# [10] = test system: TT cells (human medullary thyroid carcinoma cells); test: Proliferation assay (alamarBlue) with TT cells; settings: compound at 20 μM
# Source text: as §4
# as §2, with “1.0. […]” for “1.0.”
# [11] = test system: HL-60 cells (human acute myeloid leukemia cells); test: Proliferation assay (alamarBlue) with HL-60 cells
# Source text: as §1, §2, §3
# [12] = test system: HH cells (human cutaneous T-cell lymphoma cells); test: Proliferation assay (alamarBlue) with HH cells; settings: Table 34, compound at 20 μM, read-out: Activity Range (AVEw, weighted arithmetic mean of normalized fluorescence intensity, DMSO = 1.0)
# Source text: as §1, §2, §3
# [13] = test system: TANOUE cells (human B cell leukemia cells); test: Proliferation assay (alamarBlue) with TANOUE cells; settings: Homo sapiens, B-cell, read-out: Activity Range: weighted arithmetic mean (AVEw) of normalized fluorescence intensity relative to DMSO basis level 1.0
# Source text: as §1, §2, §3
# [14] = test system: A-431 cells (human epidermoid squamous cell carcinoma cells); test: Proliferation assay (alamarBlue) with A-431 cells
# Source text: as §1, §2, §3
# [15] = test system: C2C12 cells (murine myoblast cells); test: Proliferation assay (alamarBlue) with C2C12 cells; settings: Mus musculus, compound at 20 μM, read-out: Activity Range: weighted arithmetic mean (AVEw) of normalized fluorescence intensity, relative to DMSO basis level 1.0
# Source text: as §1, §2, §3
# [16] = test system: 23132/87 cells (human gastric adenocarcinoma cells); test: Proliferation assay (alamarBlue) with 23132/87 cells; settings: read-out: Activity Range: weighted arithmetic mean (AVEw) of normalized fluorescence intensity relative to DMSO basis level 1.0
# Source text: as §1, §2, §3
# [17] = test system: MDA-MB-231 cells (human breast carcinoma cells); test: Proliferation assay (alamarBlue) with MDA-MB-231 cells; settings: Homo sapiens, read-out: Activity Range: weighted arithmetic mean (AVEw) of normalized fluorescence intensity relative to DMSO basis level 1.0
# Source text: as §1, §2, §3
Structure (SMILES),"Activity Range: weighted arithmetic mean (AVEw) of double-normalized Notch-reporter luminescence, relative to DMSO basis level 1.0 [1]","activity at 20 µM ([2]; Homo sapiens, Table 32, compound at 20 μM, read-out: Activity Range (AVEw, weighted arithmetic mean of normalized fluorescence intensity, DMSO = 1.0))","Activity Range (AVEw, weighted arithmetic mean of normalized fluorescence intensity, DMSO = 1.0) ([2]; Table 33, compound at 20 μM)",Activity Range: weighted arithmetic mean (AVEw) of normalized fluorescence intensity relative to DMSO basis level 1.0 [3],Activity Range: weighted arithmetic mean (AVEw) of normalized fluorescence intensity relative to DMSO basis level 1.0 [4],activity at 20 µM [5],Activity Range: weighted arithmetic mean (AVEw) of normalized fluorescence intensity relative to DMSO basis level 1.0 [6],activity at 20 µM [7],activity at 20 µM [8],activity at 20 µM [9],Activity Range: weighted arithmetic mean (AVEw) of normalized fluorescence intensity relative to DMSO basis level 1.0 [10],"activity at 20 µM ([11]; Homo sapiens, Table 30, compound at 20 μM, read-out: Activity Range (AVEw, weighted arithmetic mean of normalized fluorescence intensity, DMSO = 1.0))","Activity Range (AVEw, weighted arithmetic mean of normalized fluorescence intensity, DMSO = 1.0) ([11]; Table 31, compound at 20 μM)",activity at 20 µM [12],activity at 20 µM [13],"activity at 20 µM ([14]; Homo sapiens, 20 μM, read-out: Activity Range: weighted arithmetic mean (AVEw) of normalized fluorescence intensity relative to DMSO basis level 1.0)",Activity Range: weighted arithmetic mean (AVEw) of normalized fluorescence intensity relative to DMSO basis level 1.0 ([14]; compound at 20 μM),activity at 20 µM [15],activity at 20 µM [16],activity at 20 µM [17]
C[C@H](NC(=O)Cc1cc(F)cc(F)c1)C(=O)N[C@H](C(=O)OC(C)(C)C)c1ccccc1 [DAPT],0.1 ± 0.0,,,,,,,,,,,,,,,,,,,
"CN(Cc1cnc2nc(N)nc(N)c2n1)c1ccc(C(=O)N[C@@H](CCC(=O)O)C(=O)O)cc1 [MTREX, Methotrexate, reference compound]",,10%,0.1 ± 0.0,1 ± 0.0,0.4 ± 0.0,50 ± 10%,0.5 ± 0.1,10%,30%,10%,1.0 ± 0.0,10 ± 10%,0.1 ± 0.1,40 ± 10%,10%,20 ± 10%,0.2 ± 0.1,10%,30%,60%
O=Cc1ccc(Oc2ccc(C3CCCCC3)cc2)cc1 [XPA-0020],2.0 ≤ AVEw,,,,,,,,,,,,,,,,,,,
